Laboratory results: PMC7045694 (ACS Nano, 2020)

Molecular target: T1, LBP (leucine-binding protein) (Escherichia coli, UniProt P04816)
T1 sequence (P04816 24-369): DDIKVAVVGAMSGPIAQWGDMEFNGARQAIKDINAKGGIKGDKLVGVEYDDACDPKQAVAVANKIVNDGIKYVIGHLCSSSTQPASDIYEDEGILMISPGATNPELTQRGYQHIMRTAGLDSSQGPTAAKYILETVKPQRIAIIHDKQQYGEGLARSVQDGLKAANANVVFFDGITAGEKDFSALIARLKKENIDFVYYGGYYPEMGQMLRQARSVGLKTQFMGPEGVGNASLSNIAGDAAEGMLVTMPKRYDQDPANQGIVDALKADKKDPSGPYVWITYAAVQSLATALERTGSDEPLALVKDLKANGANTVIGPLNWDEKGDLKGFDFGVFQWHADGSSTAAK

Kd: 86 ± 19 nM
SMILES: CC(C)C[C@H](N)C(=O)O [leucine]
